Measured values published in patent publication US9340575B2, “Agonists and antagonists of the urotensinergic system” (INSTITUT NATIONAL DE LA RECHERCHE SCIENTIFIQUE, priority 2011, dated 2016).
Values joined by “and” are separate entries in the source; they are usually repeats but may differ in a detail not shown here. Identical values can stand only once. “Also recorded” adds a separate entry of the source.

Tests used:
[1] = system: rat thoracic aorta rings; experiment: Antagonism of UII- or URP-induced contraction of rat aortic ring; format: cell-based
Procedure: Male rats (Sprague-Dawley, 250-300 g) were killed by CO2 asphyxiation. The thoracic aorta was then cleared of surrounding tissues and excised from aortic arch to the diaphragm. From each vessel, conjunctive tissues were removed and the clean vessel was cut into 4 mm rings. The endothelium was removed by gently rubbing the vessel's intimal surface. All preparations were placed in 5 ml organ baths filled with oxygenated normal Krebs-Henselheit solution. Contractile responses to 40 mM KCl were used as control at the beginning and at the end of each experiment. Agonistic activity was measured by increasing the concentration of the peptide in the organ chamber (3×10^−11-3×10^−6 M). For antagonist behaviour, thoracic aortic rings were first exposed to URP derivative over a period of 15 min, and then cumulative concentration-response curves to hUII, URP or ET-1 (10^−10-3×10^−6 M) were constructed. The amplitude of the contraction induced by each concentration of peptide was expressed as a percentage of the KCl-induced contraction. Finally, the ability of the antagonist to reverse the hUII-induced contraction was also evaluated. Vessels were pre-contracted with 4 nM hUII (pre-determined EC80) and after the maximum contraction was attained, contractile tone was reversed by adding increasing log unit concentrations of URP derivative. […] Binding and functional experiments were performed at least in triplicate and data, expressed as mean±S.E.M, were analyzed using the Prism software (Graph Pad Software, San Diego, Calif.). In all experiments, n represents the total number of animals studied or individual assays performed. The EC50, pEC50, pIC50 values as well as the Emax value were determined from the concentration-response curves using a sigmoidal dose-response fit with variable slope. Non-competitive antagonist affinities (pKb) were determined using the method of Gaddum where equiactive concentrations of agonist, in the absence or presence of URP derivative, were compared in a linear regression. The resulting slope was used to calculate the equilibrium constant Kb using the following equation: Kb=[B]/(slope−1); where [B] is the antagonist concentration. The slope is calculated from the double reciprocal plot of equiactive concentrations of agonist in the presence and absence of antagonist.

[2] = system: rat isolated aorta; experiment: Reversal of hUII-induced contractile tone in rat isolated aorta; format: cell-based; settings: tone established with 4 nM hUII (EC80)
Procedure: (§1) Male rats (Sprague-Dawley, 250-300 g) were killed by CO2 asphyxiation. The thoracic aorta was then cleared of surrounding tissues and excised from aortic arch to the diaphragm. From each vessel, conjunctive tissues were removed and the clean vessel was cut into 4 mm rings. The endothelium was removed by gently rubbing the vessel's intimal surface. All preparations were placed in 5 ml organ baths filled with oxygenated normal Krebs-Henselheit solution. Contractile responses to 40 mM KCl were used as control at the beginning and at the end of each experiment. Agonistic activity was measured by increasing the concentration of the peptide in the organ chamber (3×10^−11-3×10^−6 M). For antagonist behaviour, thoracic aortic rings were first exposed to URP derivative over a period of 15 min, and then cumulative concentration-response curves to hUII, URP or ET-1 (10^−10-3×10^−6 M) were constructed. The amplitude of the contraction induced by each concentration of peptide was expressed as a percentage of the KCl-induced contraction. Finally, the ability of the antagonist to reverse the hUII-induced contraction was also evaluated. Vessels were pre-contracted with 4 nM hUII (pre-determined EC80) and after the maximum contraction was attained, contractile tone was reversed by adding increasing log unit concentrations of URP derivative.

[3] = system: rat thoracic aorta rings; format: cell-based; settings: percentage of KCl (40 mM) contraction; at 10^−5.5M
Procedure: Binding and functional experiments were performed at least in triplicate and data, expressed as mean±S.E.M, were analyzed using the Prism software (Graph Pad Software, San Diego, Calif.). In all experiments, n represents the total number of animals studied or individual assays performed. The EC50, pEC50, pIC50 values as well as the Emax value were determined from the concentration-response curves using a sigmoidal dose-response fit with variable slope. […] The slope is calculated from the double reciprocal plot of equiactive concentrations of agonist in the presence and absence of antagonist.

[4] = target: T1, human urotensin II receptor (UT) (Homo sapiens, UniProt Q9UKP6); experiment: Competitive radioligand binding on CHO-UT cells; settings: for IC50: recombinant human UT
T1 construct: expressed in transfected cells; host or cells: CHO cells (CHO-UT), stably transfected, G418 selection
T1 sequence (Q9UKP6 1-389): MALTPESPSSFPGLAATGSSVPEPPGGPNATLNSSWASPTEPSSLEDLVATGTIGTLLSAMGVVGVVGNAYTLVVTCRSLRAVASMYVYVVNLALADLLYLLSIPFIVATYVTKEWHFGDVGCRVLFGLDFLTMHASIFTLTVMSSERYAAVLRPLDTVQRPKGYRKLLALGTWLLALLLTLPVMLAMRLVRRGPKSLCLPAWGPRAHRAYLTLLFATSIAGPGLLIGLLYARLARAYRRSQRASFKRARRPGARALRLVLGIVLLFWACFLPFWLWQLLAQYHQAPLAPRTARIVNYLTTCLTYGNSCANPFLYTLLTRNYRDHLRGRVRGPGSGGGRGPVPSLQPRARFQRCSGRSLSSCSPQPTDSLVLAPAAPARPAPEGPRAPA
Procedure: Transfected CHO cells expressing the human urotensin receptor (CHO-UT) were maintained in Ham-F12 medium with 10% fetal bovine serum (FBS), 2 mM L-glutamine, 100 UI/mL each of penicillin and streptomycin, and 400 μg/mL G418. […] Binding assays were following known literature procedures using CHO cells stably transfected with hGPR14. […] After 90 min of incubation at room temperature, cells were washed, lysed, and the cell-bound radioactivity was quantified using a γ-counter. […] The cells were then washed, lysed, and the radioactivity counted on a γ-counter (1470 Automatic Gamma Counter, Perkin Elmer). Binding and functional experiments were performed at least in triplicate and data, expressed as mean±S.E.M, were analyzed using the Prism software (Graph Pad Software, San Diego, Calif.). In all experiments, n represents the total number of animals studied or individual assays performed. The EC50, pEC50, pIC50 values as well as the Emax value were determined from the concentration-response curves using a sigmoidal dose-response fit with variable slope. […] The slope is calculated from the double reciprocal plot of equiactive concentrations of agonist in the presence and absence of antagonist.

[5] = system: rat thoracic aorta rings; experiment: Effect on ET-1-induced contraction of rat aortic ring; format: cell-based; settings: [Bip^4]URP 10^−6M
Procedure: as §1

CC(C)[C@H](NC(=O)[C@@H]1CSSC[C@H](NC(=O)[C@H](C)N)C(=O)N[C@@H](Cc2ccccc2)C(=O)N[C@@H](Cc2ccc(-c3ccccc3)cc2)C(=O)N[C@@H](CCCCN)C(=O)N[C@@H](Cc2ccc(O)cc2)C(=O)N1)C(=O)O [[Bip^4]URP, H-Ala-Cys-Phe-Bip-Lys-Tyr-Cys-Val-OH]
Effect on URP-induced contraction (in words) [1]: but not URP | Effect on hUII-induced contraction (in words) [1]: suppressed the maximum contractile response to hUII in a concentration-dependent manner | pKb (non-competitive antagonism of hUII) ([1]; 1 μM [Bip^4]URP, method of Gaddum): 7.15 | Slope of double reciprocal plot of equiactive hUII concentrations (method of Gaddum) ([1]; absence and presence of 1 μM [Bip^4]URP): 15.00±0.62 and 15.0±0.6 | Suppression of contractile tone [2]: 92% | pIC50 for reversal of contractile tone [2]: 7.72±0.15 | Aortic Ring contraction Emax (%), maximum efficacy at 10^−5.5M [3]: 8.7% | IC50 ([4]; Binding (125I-URP) IC50 (nM), radioligand 125I-URP): 339 nM | IC50 ([4]; Binding (125I-hUII) IC50 (nM), radioligand 125I-hUII): 386 nM | Displacement of both radioligands (125I-hUII and 125I-URP) ([4]; CHO-UT cells): 100% | Effect on ET-1-induced contraction (in words) [5]: not able to alter the concentration-response curves; also recorded: did not inhibit or potentiate
